In patent publication US10150773B2, “N-substituted 8-[(2,6-difluorobenzyl)oxy]-2,6- dimethylimidazo[1,2-a]pyrazin-3-carboxamide derivatives as stimulators of soluble guanylate cyclase (SGC) for the treatment of cardiovascular diseases” (Bayer Pharma Aktiengesellschaft, priority 2015, dated 2018):

System: recombinant guanylate cyclase reporter cell line
Assay: Effect on a recombinant guanylate cyclase reporter cell line
Format: cell-based
Settings: in some cases mean values from individual determinations
Experimental: B-2. Effect on a Recombinant Guanylate Cyclase Reporter Cell Line
The cellular activity of the compounds according to the invention is determined using a recombinant guanylate cyclase reporter cell line, as described in F. Wunder et al., Anal. Biochem. 339, 104-112 (2005).
Representative MEC values (MEC=minimum effective concentration) for the compounds of the invention are shown in the table below (in some cases as mean values from individual determinations): […]

| Compound | MEC (minimum effective concentration) [µM] |
| --- | --- |
| Cc1cn2c(C(=O)NC(C)(CO)c3nnn(C(F)F)n3)c(C)nc2c(OCc2c(F)cccc2F)n1 (racemic) [Example 2, rac-8-[(2,6-Difluorobenzyl)oxy]-N-{2-[2-(difluoromethyl)-2H-tetrazol-5-yl]-1-hydroxypropan-2-yl}-2,6-dimethylimidazo[1,2-a]pyrazine-3-carboxamide] | 0.10 |
| [2H]C([2H])([2H])CC(C)(N)CNC(=O)c1c(C)nc2c(OCc3c(F)cccc3F)nc(C)cn12 (single isomer, unassigned; enantiomer a) [Example 3, ent-N-[2-Amino-2-methyl(4,4,4-^2H3)butyl]-8-[(2,6-difluorobenzyl)oxy]-2,6-dimethylimidazo[1,2-a]pyrazine-3-carboxamide (Enantiomer A)] | 0.65 |
| Cc1cn2c(C(=O)NCC(C)(N)CC[Si](C)(C)C)c(C)nc2c(OCc2c(F)cccc2F)n1 (single isomer, unassigned; enantiomer a) [Example 4, ent-N-[2-Amino-2-methyl-4-(trimethylsilyl)butyl]-8-[(2,6-difluorobenzyl)oxy]-2,6-dimethylimidazo[1,2-a]pyrazine-3-carboxamide (Enantiomer A)] | 1.0 |
| Cc1cn2c(C(=O)NCC(C)(N)CC[Si](C)(C)C)c(C)nc2c(OCc2c(F)cccc2F)n1 (single isomer, unassigned; enantiomer b) [Example 5, ent-N-[2-Amino-2-methyl-4-(trimethylsilyl)butyl]-8-[(2,6-difluorobenzyl)oxy]-2,6-dimethylimidazo[1,2-a]pyrazine-3-carboxamide (Enantiomer B)] | 1.0 |
| Cc1cn2c(C(=O)N[C@@](C)(CO)c3nnc(C)s3)c(C)nc2c(OCc2c(F)cccc2F)n1 [Example 1, ent-8-[(2,6-Difluorobenzyl)oxy]-N-[(2S)-1-hydroxy-2-(5-methyl-1,3,4-thiadiazol-2-yl)propan-2-yl]-2,6-dimethylimidazo[1,2-a]pyrazine-3-carboxamide] | 0.65 |
